For one test, the target named is Syk kinase (Homo sapiens, UniProt P43405). The experiment in a line: SYK Enzymatic Assay (Z-LYTE Tyr 2 peptide). The format is biochemical. Conditions: 8 concentrations 1 μM down to 0.0003 μM. The procedure, abridged:
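Z-LYTE format using Tyr 2 peptide. After the 1 h room-temperature kinase reaction, development reagent was added for 1 h, then stop reagent. Fluorescence was read at 445 and 520 nm. Compounds were tested at 8 concentrations, 1 μM down to 0.0003 μM (1:3 dilutions).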

In the next test the test system is RBL-2H3 cells. As to the kind of experiment: IgE-induced Beta-hexosaminidase secretion in RBL-2H3 cells. The format is cell-based. As to conditions: DNP-BSA stimulation. In a few lines: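 RBL-2H3 cells sensitized overnight with 0.5 ug/ml SPE-7 IgE, washed, preincubated with compound 20 min at 37° C, then stimulated with DNP-BSA (150 ng/mL stock) for 45 min. Released β-hexosaminidase measured on supernatant with 1 mM 4-nitrophenyl N-acetyl-β-D-glucosaminide, pH 4.5, 1.5 hr at 37° C; absorbance 405 nm after carbonate quench.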

Where [1] appears, read: IgE-induced Beta-hexosaminidase secretion.
Where [2] appears, read: Rattus norvegicus, RBL-2H3, IgE-induced Beta-hexosaminidase secretion.

Consider 18 compounds from patent US20170152258A9, “Substituted Pyridopyrazines as Syk Inhibitors” (HUTCHISON MEDIPHARMA LIMITED, priority 2012, published 2017).

Molecules are shown by their SMILES.

For orientation: IC50 means the concentration needed to halve the response being measured. A higher IC50 goes with weaker potency in that assay. As to `N#CC1(c2ccc(-c3cc4nccnc4c(OC[C@@H]4CN(C(N)=O)CCO4)n3)cc2)CCC1` [Compound 290], the half-inhibitory concentration (IC50) at Syk kinase is 50 nM; in the test with RBL-2H3 cells (setting [1]) it was 467 nM; in the test on RBL-2H3 cells (setting [2]) it was 374 nM.

For the compound `COc1ccc(-c2cc3nccnc3c(OC[C@@H]3CN(S(N)(=O)=O)CCO3)n2)cc1OC` [Compound 292, (S)-2-(((7-(3,4-dimethoxyphenyl)pyrido[3,4-b]pyrazin-5-yl)oxy)methyl)morpholine-4-sulfonamide], the half-maximal inhibitory concentration (IC50) against Syk kinase stood at 14 nM; in the test on RBL-2H3 cells (setting [2]), 232 nM.

`N#CC1(c2ccc(-c3cc4nccnc4c(OC[C@@H]4CN(S(N)(=O)=O)CCO4)n3)cc2)CC1` [Compound 293]: the IC50 stood at 50 nM on Syk kinase and 241 nM with RBL-2H3 cells (setting [2]).

Regarding `N#CC1(c2ccc(-c3cc4nccnc4c(OC[C@@H]4CN(S(N)(=O)=O)CCO4)n3)cc2)CCC1` [Compound 294], the figures for the IC50 against Syk kinase, in the test on RBL-2H3 cells (setting [1]) and in the test on RBL-2H3 cells (setting [2]) were 51 nM, 132 nM and 218 nM, respectively.

Turning to `CC(=O)N1CCO[C@H](COc2nc(-c3ccc4c(c3)COC4(C)C)cc3nccnc23)C1` [Compound 297], the half-inhibitory concentration (IC50) was 58 nM against Syk kinase and 88 nM with RBL-2H3 cells (setting [2]).

As to `CC1(C)OCc2cc(-c3cc4nccnc4c(OC[C@@H]4CN(C(N)=O)CCO4)n3)ccc21` [Compound 298], the IC50 amounted to 28 nM against Syk kinase and 191 nM in the test with RBL-2H3 cells (setting [2]).

On to `CC1(C)OCc2cc(-c3cc4nccnc4c(OC[C@@H]4CN(S(C)(=O)=O)CCO4)n3)ccc21` [Compound 299], for which the IC50 against Syk kinase came to 14 nM; with RBL-2H3 cells (setting [2]), 47 nM.

Consider `CC1(C)OCCc2cc(-c3cc4nccnc4c(OC[C@@H]4CN(C(N)=O)CCO4)n3)ccc21` [Compound 301], for which the results for the IC50 against Syk kinase and with RBL-2H3 cells (setting [2]) were 24 nM and 107 nM, respectively.

Consider `CC1(C)OCCc2cc(-c3cc4nccnc4c(OC[C@@H]4CN(S(C)(=O)=O)CCO4)n3)ccc21` [Compound 302], for which the results for the IC50 at Syk kinase and with RBL-2H3 cells (setting [2]) were 9 nM and 30 nM, respectively.

Turning to `CS(=O)(=O)N1CCO[C@H](COc2nc(-c3ccc(C4(O)CCC4)cc3)cc3nccnc23)C1` [Compound 308], the figures for the IC50 at Syk kinase and with RBL-2H3 cells (setting [2]) were 35 nM and 97 nM, respectively.

`NC(=O)N1CCO[C@H](COc2nc(-c3ccc(C4(O)CCC4)cc3)cc3nccnc23)C1` [Compound 311]: the IC50 at Syk kinase was 35 nM; with RBL-2H3 cells (setting [2]) it was 620 nM.

Regarding `NS(=O)(=O)N1CCO[C@H](COc2nc(-c3ccc(C4(O)CCC4)cc3)cc3nccnc23)C1` [Compound 312], the values for the IC50 at Syk kinase and in the test on RBL-2H3 cells (setting [2]) were 69 nM and 873 nM, respectively.

Take `CS(=O)(=O)N1CCO[C@H](COc2nc(-c3ccc(C4(O)CCOCC4)cc3)cc3nccnc23)C1` [Compound 314]: the 50% inhibitory concentration (IC50) came out at 43 nM against Syk kinase and 117 nM in the test on RBL-2H3 cells (setting [2]).

In the case of `CN1CCOC(COc2nc(-c3ccc(C4CCN(S(C)(=O)=O)CC4)cc3)cc3nccnc23)C1=O` (centres unmarked) [Compound 315], the IC50 came to 103 nM against Syk kinase and 123 nM in the test on RBL-2H3 cells (setting [2]).

As for `CN1CCOC(COc2nc(-c3ccc(C(C)(C)O)cc3)cc3nccnc23)C1=O` (centres unmarked) [Compound 316], the IC50 on Syk kinase is 115 nM; with RBL-2H3 cells (setting [2]), 113 nM.

Take `CC1(c2ccc(-c3cc4nccnc4c(OC[C@@H]4CN(S(C)(=O)=O)CCO4)n3)cc2)COC1` [Compound 317]: the IC50 on Syk kinase was 33 nM; in the test on RBL-2H3 cells (setting [2]) it was 94 nM.

As for `CC(C)(C(=O)O)c1ccc(-c2cc3nccnc3c(OC[C@@H]3CN(S(C)(=O)=O)CCO3)n2)cc1` [Compound 318], the IC50 is 17 nM at Syk kinase and 174 nM in the test on RBL-2H3 cells (setting [2]).

On to `CC(=O)N1CC(C)(c2ccc(-c3cc4nccnc4c(OC[C@@H]4CN(S(C)(=O)=O)CCO4)n3)cc2)C1` [Compound 321], for which the IC50 on Syk kinase was 14 nM; with RBL-2H3 cells (setting [2]) it was 127 nM.
